Laboratory results as given in the NIST ThermoML archive (doi:10.1016/j.jct.2016.10.009).

Assay: xn = mol fraction of the nth substance listed
Details: Liquid, Vibrating tube method

CC(C)OC(C)C [diisopropyl ether] + CCC(C)O
mass density [kg/m3]
Details	x2 = 0	x2 = 0.2036	x2 = 0.3227	x2 = 0.4464	x2 = 0.4973	x2 = 0.6595	x2 = 0.8482
298.15 K, 80000 kPa	–	–	–	–	–	823.7	837.7
298.15 K, 90000 kPa	790.3	801	807.7	814.9	818	828.7	842.4
298.15 K, 100000 kPa	795.7	806.1	812.7	819.8	822.9	833.3	846.9
298.15 K, 110000 kPa	800.8	811.1	817.6	824.5	827.5	837.9	851.2
298.15 K, 120000 kPa	805.6	815.8	822.1	829	832	842.1	855.3
298.15 K, 130000 kPa	810.3	820.3	826.5	833.3	836.3	846.3	859.2
298.15 K, 140000 kPa	814.6	824.6	830.9	837.5	840.4	850.3	863.1
313.15 K, 100 kPa	702.4	717.2	726.3	736.2	740.5	755.1	773.8
313.15 K, 1000 kPa	703.8	718.4	727.5	737.3	741.6	756.1	774.7
313.15 K, 5000 kPa	709.4	723.5	732.4	741.9	746.1	760.2	778.4
313.15 K, 10000 kPa	715.8	729.6	738.2	747.4	751.5	765.2	782.9
313.15 K, 15000 kPa	721.7	735	743.4	752.4	756.4	769.8	787.1
313.15 K, 20000 kPa	727.2	740.2	748.4	757.1	761	774.1	791.1
313.15 K, 25000 kPa	732.1	744.8	752.8	761.4	765.2	778	794.6
313.15 K, 30000 kPa	737.1	749.5	757.4	765.8	769.6	782.1	798.4
313.15 K, 35000 kPa	741.6	753.8	761.5	769.8	773.5	785.8	801.8
313.15 K, 40000 kPa	745.9	757.8	765.4	773.6	777.2	789.3	805.1
313.15 K, 45000 kPa	750	761.7	769.2	777.2	780.8	792.8	808.3
313.15 K, 50000 kPa	753.9	765.5	772.9	780.8	784.3	796.1	811.4
313.15 K, 55000 kPa	757.7	769.1	776.4	784.2	787.7	799.3	814.4
313.15 K, 60000 kPa	761.3	772.7	779.8	787.4	790.9	802.3	817.3
313.15 K, 65000 kPa	764.8	776	783.1	790.7	794.1	805.4	820.1
313.15 K, 70000 kPa	768.1	779.1	786.1	793.7	797	808.2	822.8
313.15 K, 80000 kPa	774.4	785.2	792.1	799.4	802.7	813.7	827.9
313.15 K, 90000 kPa	780.5	791	797.8	805	808.2	818.9	832.9
313.15 K, 100000 kPa	786.1	796.5	803.1	810.1	813.4	823.9	837.6
313.15 K, 110000 kPa	791.4	801.7	808.2	815.1	818.3	828.6	842.1
313.15 K, 120000 kPa	796.5	806.5	813	819.8	822.9	833	846.4
313.15 K, 130000 kPa	801.4	811.3	817.7	824.4	827.4	837.4	850.5
313.15 K, 140000 kPa	806	815.8	822	828.7	831.7	841.6	854.5
333.15 K, 100 kPa	680.5	695.4	704.8	715.1	719.6	734.7	754.2
333.15 K, 1000 kPa	682.1	696.9	706.3	716.4	720.9	735.9	755.4
333.15 K, 5000 kPa	688.9	703	712.1	721.9	726.3	740.8	759.7
333.15 K, 10000 kPa	696.4	709.9	718.7	728.2	732.4	746.5	764.8
333.15 K, 15000 kPa	703.2	716.4	724.8	734	738.1	751.8	769.6
333.15 K, 20000 kPa	709.4	722.2	730.4	739.3	743.4	756.7	774.1
333.15 K, 25000 kPa	715.1	727.6	735.7	744.4	748.3	761.3	778.2
333.15 K, 30000 kPa	720.5	732.7	740.5	749.1	752.9	765.7	782.3
333.15 K, 35000 kPa	725.6	737.5	745.2	753.6	757.3	769.8	786.2
333.15 K, 40000 kPa	730.3	742	749.6	757.8	761.5	773.7	789.8
333.15 K, 45000 kPa	734.8	746.3	753.7	–	–	–	–
